Experimental data: patent US12565494B2, “Inhibitors of human respiratory syncytial virus and metapneumovirus” (priority 2022, dated 2026)
Read-outs that look alike come from different tables or passages of the source.

Tests used:
[1] = system: RSV-A2-GFP virus; assay: microbe, parasite or virus in culture; type: cell-based, Human Respiratory Syncytial Virus; conditions: Calu-1 cells, RSV-A2-GFP MOI=1.2, 96 hrs, GFP-expressing cells counted
Experimental: To set up the assay, ARF vials were thawed in a 37° C. water bath and a control compound was resuspended in assay media DMEM (Dulbecco's Modified Eagle Medium) containing 2% FBS, 100 U/ml Penicillin-Streptomycin.
GFP sequence was derived from pJTI™ R4 Dest CMV N-EmGFP pA Vector (Invitrogen) and was cloned into the intergenic sequence between wild-type RSV-A2 P and M genes using standard recombineering techniques. Recombinant RSV-A2-GFP was propagated in Hep2 cells (human cells contain HeLa marker chromosomes and were derived via HeLa contamination, ATCC CCL-23) with a Multiplicity of Infection (MOI) of 0.1. Virus was harvested 3 days after infection by collecting all culture material and then freeze-thawing the mixture for 5 minutes. Working virus stocks were generated by thawing frozen viral cultures in 37° C. water bath, which were centrifuged at 218 g for 15 min at 4° C. 1/10 of 10×SPG (Biological Industries 06-3061-01-5A) were added and then mixed. The supernatant was aliquoted, frozen in liquid nitrogen, and then transferred to a −80° C. freezer for storage. Virus titer was determined by automated plaque assay in HEp-2 cells following methods described previously (Wen Z. et al.; 2019).
Calu-1 cells were purchased from ATCC (Cat #HTB-54) and were expanded in growth media (DMEM containing 10% FBS, 100 U/ml Penicillin-Streptomycin). To make ARF, cell culture media was removed and discarded and the cell layer was briefly rinsed with PBS to remove serum. 2.5 mL of TrypLE Express solution were added and cells incubated until dislodged, to which growth media was added and the cells were resuspended by gentle pipetting. Cells were counted for concentration and viability as determined by ViCell. Cells were centrifuged at RT, 300 g for 5 minutes to pellet cells. The supernatant was gently aspirated and the pellet was flicked to loosen cells. Cells were resuspended in an appropriate volume of freezing medium (DMEM containing 10% DMSO, 10% FBS, 100 U/ml Penicillin-Streptomycin) to achieve a concentration of 5×10^6 cells/mL. 1 mL aliquots of the cell suspension were transferred to freezing vials. The vials were put into an upright container in a −80° C. freezer overnight before transferring vials to liquid nitrogen for storage
Assay ready freeze-down (ARF, generation described separately) Calu-1 cells (ATCC HTB-54) were used. Compound plates were prepared by dispensing compounds dissolved in DMSO into the wells of a 384 well Corning® 3985 plate with an ECHO acoustic dispenser and compounds were tested in 10-point serial 3-fold dilution. […] To set up the assay, ARF vial(s) were thawed in a 37° C. water bath and were then resuspended into assay media (DMEM containing 2% FBS, 100 U/ml Penicillin-Streptomycin). Cells were counted using default parameters on ViCell and diluted to 20,000 cells/mL in assay media. RSV-A2-GFP virus was added to cells at 24,000 pfu/ml (MOI=1.2) and mixed by gentle inversion. 10 μL/well of 100% DMSO was dispensed as CellTiter-Glo (CTG) assay Max_E controls wells. The cells were dispensed at 50 μL/well using Bravo with 50 μL filtered tips into compound plates. Plates were covered with MicroClime lids, loaded with 7.5 mL of assay media to minimize evaporation, and were incubated at 37° C. and 5% CO2 for 96 hrs. Following incubation, distinct, GFP-expressing cells were counted using an Acumen imaging system with appropriate settings. A same-well CTG assay was performed by adding 10 μL/well reconstituted CellTiter-Glo reagent (Promega G7573) and plates were read on PerkinElmer Envision according to manufacturer's instructions. Raw data were loaded and analyzed in ActivityBase. Antiviral IC50 and cytotoxicity CC50 values were determined using a 4 parameter logistic fit based on the Levenberg-Marquardt algorithm. Model: 205-4 Parameter Logistic.

[2] = system: hMPV-GFP virus; assay: microbe, parasite or virus in culture; type: cell-based, Human Metapneumovirus; conditions: VERO cells, hMPV-GFP MOI=1.25, 48 hrs, GFP-expressing cells counted
Experimental: GFP expressing rgHMPV #3 p3 was generated in Dr. Buchholz's lab (Biacchesi S. et al., J Virol. 2007 June; 81(11): 6057-6067) and propagated in VERO cells (ATCC Cat #CCL-81) with a Multiplicity of Infection (MOI) of 0.1. Virus was harvested 4 days after infection by collecting cultured material and was freeze-thaw cycled in liquid nitrogen twice. Working virus stocks were generated from thawing frozen samples in 37° C. water bath, which were centrifuged at 218 g for 15 min at 4° C. 1/10 of 10×SPG (Biological Industries 06-3061-01-5A) were added and then mixed. The supernatant was aliquoted, frozen in liquid nitrogen, and then transferred to a −80° C. freezer for storage. Virus titer was determined by performing titration test in 96-well plates and calculate approximate virus titer using GFP event/well data.
Compound plates were prepared by dispensing compounds dissolved in DMSO into wells of a 384 well Corning 3985 polystyrene flat clear bottom optical imaging microplate (202.5 nL/well) using an ECHO acoustic dispenser. Each compound was tested in 10-point serial 3-fold dilution (typical final concentrations: 40,300 nM-2 nM). […] Continuous culture of VERO cells was maintained in complete culture media (OptiMEM supplemented with 2 mM GlutaMAX™ and 100 U/ml Penicillin-Streptomycin). To set up the assay, VERO cells were trypsinized with 0.25% Trypsin-EDTA until cells were dislodged, then cells were re-suspended with 1 mL FBS. Cells were spundown at 300 g for 5 minutes and cells were washed twice with culture media and counted using default parameters on ViCell. Cells were then diluted to 100,000 cells/mL (5,000 cells/50 μL) in complete culture media+TrypLE Select (80 μL/mL). hMPV-GFP virus was added to cells at 125,000 pfu/mL (MOI=1.25) and were mixed by gentle inversion. 10 μL/well of 100% DMSO was dispensed to CellTiter-Glo (CTG) assay Max_E controls wells. Cells were dispensed at 50 μL/well using Bravo and 50 μL filtered tips into compound plates. Plates were covered with MicroClime lids and loaded with 7.5 mL of assay media to minimize evaporation. Plates were lightly shaken for 10 minutes at room temperature and then incubated at 37° C. and 5% CO2 for 48 hrs. Following incubation, distinct GFP-expressing cells were counted using an Acumen imaging system with appropriate settings. A same-well CTG assay was performed by adding 10 μL/well reconstituted CellTiter-Glo reagent (Promega G7573) and plates were read on PerkinElmer Envision according to manufacturer's instructions. Raw data were loaded and analyzed in ActivityBase. Antiviral IC50 and cytotoxicity CC50 values were determined using a 4 parameter logistic fit based on the Levenberg-Marquardt algorithm. Model: 205-4 Parameter Logistic.

[3] = human respiratory syncytial virus, Calu-1, 96 h, read-out: RSV EC50, Table I Summary of Activities for RSV
[4] = Vero, 48 h, read-out: RSV EC50, Table II Summary of Activities for hMPV
[5] = Table I Summary of Activities for RSV, read-out: RSV EC50
[6] = Table II Summary of Activities for hMPV, read-out: RSV EC50
[7] = read-out: RSV EC50, Table I Summary of Activities for RSV
[8] = read-out: RSV EC50, Table II Summary of Activities for hMPV

| SMILES | EC50 [1, 3] [nM] | EC50 [2, 4] [nM] | other results |
| --- | --- | --- | --- |
| Cn1nc(-c2cscn2)cc1C(=O)N1C[C@@H]2[C@H](C1)[C@H]2Oc1cc(C(N)=O)cc(-c2ccc(F)cc2)n1 [Example 47, 2-(4-fluorophenyl)-6-(((1R,5S,6s)-3-(1-methyl-3-(thiazol-4-yl)-1H-pyrazole-5-carbonyl)-3-azabicyclo[3.1.0]hexan-6-yl)oxy)isonicotinamide] | < 10 | > 100 | – |
| Cn1nc(-c2ncco2)cc1C(=O)N1C[C@@H]2[C@H](C1)[C@H]2Oc1cc(C(C)(C)N)cc(-c2ccc(F)cc2)n1 [Example 17, ((1R,5S,6s)-6-((4-(2-aminopropan-2-yl)-6-(4-fluorophenyl)pyridin-2-yl)oxy)-3-azabicyclo[3.1.0]hexan-3-yl)(1-methyl-3-(oxazol-2-yl)-1H-pyrazol-5-yl)methanone] | < 10 | 10 to 100 | – |
| Cn1nc(-c2cscn2)cc1C(=O)N1C[C@@H]2[C@H](C1)[C@H]2Oc1cc(C(C)(N)CO)cc(-c2ccc(F)cc2)n1 (single isomer, unassigned; enantiomer 1) [Example 57A] | < 10 | > 100 | – |
| Cn1nc(-c2cscn2)cc1C(=O)N1C[C@@H]2[C@H](C1)[C@H]2Oc1cc(C(C)(C)N)cc(N2CCC(C(F)(F)F)CC2)n1 [Example 41, ((1R,5S,6s)-6-((4-(2-aminopropan-2-yl)-6-(4-(trifluoromethyl)piperidin-1-yl)pyridin-2-yl)oxy)-3-azabicyclo[3.1.0]hexan-3-yl)(1-methyl-3-(thiazol-4-yl)-1H-pyrazol-5-yl)methanone] | – | – | EC50 [1, 5]: < 10 nM; EC50 [2, 6]: > 100 nM |
| Cn1nc(-c2ncco2)cc1C(=O)N1C[C@@H]2C(Oc3cc(C(C)(N)CO)cc(-c4ccc(F)cc4)n3)[C@@H]2C1 (single isomer, unassigned; enantiomer 1) [Example 58A] | – | – | EC50 [1, 5]: < 10 nM; EC50 [2, 6]: > 100 nM |
| Cn1nc(-c2cscn2)cc1C(=O)N1C[C@@H]2C(Oc3cc(C(C)(N)CO)cc(-c4ccc(F)cc4)n3)[C@@H]2C1 (single isomer, unassigned; enantiomer 2) [Example 57B] | – | – | EC50 [1, 5]: < 10 nM; EC50 [2, 6]: > 100 nM |
| Cn1nc(-c2cscn2)cc1C(=O)N1C[C@@H]2[C@H](C1)[C@H]2Oc1cc(C(C)(C)N)cc(C2CCC(C)(C)CC2O)n1 (single isomer, unassigned; enantiomer 3) [Example 66C] | – | – | EC50 [1, 7]: 10 to 100 nM; EC50 [2, 8]: > 100 nM |
| Cn1nc(-c2cscn2)cc1C(=O)N1C[C@@H]2[C@H](C1)[C@H]2Oc1cc(C(C)(C)N)cc(-n2cc(C3CC3)cn2)n1 [Example 38, ((1R,5S,6s)-6-((4-(2-aminopropan-2-yl)-6-(4-cyclopropyl-1H-pyrazol-1-yl)pyridin-2-yl)oxy)-3-azabicyclo[3.1.0]hexan-3-yl)(1-methyl-3-(thiazol-4-yl)-1H-pyrazol-5-yl)methanone] | – | – | EC50 [1, 5]: < 10 nM; EC50 [2, 6]: > 100 nM |
| Cn1nc(-c2ncco2)cc1C(=O)N1C[C@@H]2[C@H](C1)[C@H]2Oc1cc(C(C)(C)N)cc(N2CCC(C)(C)CC2)n1 [Example 65, ((1R,5S,6s)-6-((4-(2-aminopropan-2-yl)-6-(4,4-dimethylpiperidin-1-yl)pyridin-2-yl)oxy)-3-azabicyclo[3.1.0]hexan-3-yl)(1-methyl-3-(oxazol-2-yl)-1H-pyrazol-5-yl)methanone] | < 10 | > 100 | – |
| Cn1nc(-c2cscn2)cc1C(=O)N1C[C@@H]2[C@H](C1)[C@H]2Oc1cc(C2(C)CCNC2=O)cc(-c2ccc(F)cc2)n1 (single isomer, unassigned; ent-3) [Example 51A] | < 10 | > 100 | – |
| Cn1nc(-c2cscn2)cc1C(=O)N1C[C@@H]2[C@H](C1)[C@H]2Oc1cc(C2(C)CCCN2)cc(-c2ccc(F)cc2)n1 (single isomer, unassigned; enantiomer 2) [Example 56B] | – | – | EC50 [1, 7]: < 10 nM; EC50 [2, 8]: > 100 nM |
| Cn1nc(-c2cscn2)cc1C(=O)N1C[C@@H]2[C@H](C1)[C@H]2Oc1cc(C2(C)CNC2=O)cc(-c2ccc(F)cc2)n1 (single isomer, unassigned; ent-3) [Example 50A] | < 10 | > 100 | – |
| Cn1nc(-c2cscn2)cc1C(=O)N1C[C@@H]2[C@H](C1)[C@H]2Oc1cc(C(C)(C)N)cc(C2CCC(C)(C)CC2O)n1 (single isomer, unassigned; enantiomer 2) [Example 66B] | – | – | EC50 [1, 7]: 10 to 100 nM; EC50 [2, 8]: > 100 nM |
| Cn1nc(-c2cscn2)cc1C(=O)N1C[C@@H]2[C@H](C1)[C@H]2Oc1cc(C2(N)CCCC2)cc(-c2ccc(F)cc2)n1 [Example 53, ((1R,5S,6s)-6-((4-(1-aminocyclopentyl)-6-(4-fluorophenyl)pyridin-2-yl)oxy)-3-azabicyclo[3.1.0]hexan-3-yl)(1-methyl-3-(thiazol-4-yl)-1H-pyrazol-5-yl)methanone] | < 10 | > 100 | – |
